Several values for one entry are separate records, joined by “and”; a condition that tells them apart may be missing. Equal values may be shown once. Marks after values point to notes of the source that are not given here.
Assays:
anti-collagen IgG1 = experiment: CIA model: rat anti-collagen IgG1 levels; type: in vivo, Lewis rats; set-up: Average rat anti-collagen IgG1 levels, Mean: unit not given here; details: Group 3 (CIA + Dexamethasone)
[1] = CIA study: animal body weight; details: for Average animal body weight percent change: CIA; for Animal body weight percent change (%): Group 3 (CIA + Dexamethasone), individual animals

C[C@@H]1C[C@H]2[C@@H]3CCC4=CC(=O)C=C[C@]4(C)[C@@]3(F)[C@@H](O)C[C@]2(C)[C@@]1(O)C(=O)CO [Dexamethasone, dexamethasone]
Average rat anti-collagen IgG1 levels, Mean (anti-collagen IgG1): 7833.69*
Average animal body weight percent change ([1]; Day 0): 0.00%
Animal body weight percent change (%) ([1]; Day 0): 0.00%
Average animal body weight percent change ([1]; Day 1): −2.80%
Animal body weight percent change (%) ([1]; Day 1): 0.66% and −7.41% and −1.72% and −2.37% and 1.20% and −6.21%
Average animal body weight percent change ([1]; Day 2): −3.22%
Animal body weight percent change (%) ([1]; Day 2): −0.66% and −6.79% and 1.15% and −1.78% and −3.01% and −8.07%
Average animal body weight percent change ([1]; Day 3): −4.37%
Animal body weight percent change (%) ([1]; Day 3): −1.99% and 11.11% and 0.57% and −2.96% and −2.41% and −9.94%
Average animal body weight percent change ([1]; Day 4): −4.95%
Animal body weight percent change (%) ([1]; Day 4): −2.65% and −9.26% and −2.30% and −5.33% and −6.02%
Average animal body weight percent change ([1]; Day 5): −4.95%
Animal body weight percent change (%) ([1]; Day 5): −2.65% and −8.02% and −5.17% and −2.96% and −4.82%
Average animal body weight percent change ([1]; Day 6): −4.41%
Animal body weight percent change (%) ([1]; Day 6): −2.65% and 6.17% and −1.72% and −4.73% and −6.63%
Average animal body weight percent change ([1]; Day 7): −3.35%
Animal body weight percent change (%) ([1]; Day 7): −0.66% and −5.56% and 2.30% and −4.14% and −3.61%
Average animal body weight percent change ([1]; Day 8): −3.90%
Average animal body weight percent change ([1]; Day 9): −1.84%
Average animal body weight percent change ([1]; Day 10): −2.30%
Average animal body weight percent change ([1]; Day 11): −1.24%
Average animal body weight percent change ([1]; Day 12): −1.18%
Average animal body weight percent change ([1]; Day 13): −0.91%
Average animal body weight percent change ([1]; Day 14): −1.24%
Average animal body weight percent change ([1]; Day 15): 0.43%
Animal body weight percent change (%) ([1]; Day 15): 9.93% and −3.09% and 2.30% and 0.59% and 1.20% and −6.83% and 2.33% and −0.63%
Average animal body weight percent change ([1]; Day 16): −0.57%
Animal body weight percent change (%) ([1]; Day 16): 3.97% and −5.56% and 7.47% and −0.59% and −4.22% and −8.70% and 1.16% and 1.88%
Average animal body weight percent change ([1]; Day 17): 0.62%
Animal body weight percent change (%) ([1]; Day 17): 5.96% and −4.32% and 8.05% and −2.37% and 0.60% and −6.83% and −1.16% and 5.00%
Average animal body weight percent change ([1]; Day 18): 1.02%
Animal body weight percent change (%) ([1]; Day 18): 3.97% and −6.17% and 8.62% and −2.37% and 0.00% and −5.59% and 4.07% and 5.63%
Average animal body weight percent change ([1]; Day 19): 1.53%
Animal body weight percent change (%) ([1]; Day 19): 7.28% and −9.26% and 10.34% and 0.59% and 1.20% and −5.59% and 5.81% and 1.88%
Average animal body weight percent change ([1]; Day 20): 1.66%
Animal body weight percent change (%) ([1]; Day 20): 7.95% and −3.70% and 5.75% and 2.37% and 0.60% and 4.35% and 4.65% and 0.00%
Average animal body weight percent change ([1]; Day 21): 1.30%
Animal body weight percent change (%) ([1]; Day 21): 8.61% and −3.70% and 7.47% and 0.00% and −3.01% and −5.59% and 2.91% and 3.75%

Reference: US20260217701A1, “SELECTIVE BET INHIBITORS AND USES THEREOF” (Tay Therapeutics Limited, priority 2022, published 2026)
